Assay results reported in patent US20240262848A1, “HETEROCYCLIC COMPOUNDS, COMPOSITIONS THEREOF, AND METHODS OF TREATMENT THEREWITH” (BeiGene, Ltd., priority 2022, published 2024).

Legend:
[1] = target: GST-tagged GDP-loaded KRAS G12V (amino acids 1-169) (Homo sapiens, UniProt P01116, G12V); assay: KRAS G12V probe displacement assay (TR-FRET); assay type: binding; details: Table 4; KRAS G12V 2 nM, biotinylated probe 2 2.5 nM
Procedure: Plates are incubated at 24 °C for 1 hr. […] After 1 hr incubation at 24° C.

[2] = test system: pERK1/2(THR202/TYR204) level in SW620 cell line; assay: KRAS G12V pERK assay in SW620 cells (HTRF); assay type: cell-based; details: Homo sapiens, SW-620, Table 4, 2 hrs compound treatment
Procedure: SW620 cell line was used in this study. Cells were maintained in RPMI 1640 supplemented with 10% fetal bovine serum (Thermo Fisher), 50 units/mL penicillin and streptomycin (Thermo Fisher) and kept at 37° C. in a humidified atmosphere of 5% CO2 in air. Cells were reinstated from frozen stocks that were laid down within 30 passages from the original cells purchased. 40000 cells per well were seeded into a 96-well plate and incubated overnight. Cells were treated with a 10-point dilution series. The final compound concentration is from 0 to 10 μM. After 2 hrs compound treatment, cells were lysed, and the pERK1/2(THR202/TYR204) level in the cell lysates was detected by HTRF kit (Cisbio). In brief, a total of 16 μL of cell lysate from each well of a 96-well plate was transferred to a 384-well white assay plate. Lysate from each well was incubated with 2 μL of Eu3+-cryptate (donor) labeled anti-phospho-ERK1/2 and 2 μL of D)2 (acceptor) labeled anti-phospho-ERK1/2 antibodies (Cisbio) overnight in dark at room temperature. When donor and acceptor are in close proximity, excitation of the donor with laser triggers a Fluorescence Resonance Energy Transfer (FRET) towards the acceptor, which in turn fluoresces at 655 nm wavelength. FRET signals were measured using a PHERAstar FSX reader (BMG Labtech). IC50 determination was performed by fitting the curve of percent inhibition versus the log of the inhibitor concentration using Dotmatics.

GST-tagged GDP-loaded KRAS G12V (amino acids 1-169), sequence (P01116 1-169 isoform P01116-2 G12V): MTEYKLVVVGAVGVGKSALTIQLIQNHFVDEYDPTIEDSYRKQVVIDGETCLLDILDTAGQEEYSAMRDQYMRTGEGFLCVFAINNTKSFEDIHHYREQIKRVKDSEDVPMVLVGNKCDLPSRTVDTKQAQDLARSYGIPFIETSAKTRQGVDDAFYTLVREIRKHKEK

Row | Structure (SMILES) | IC50 [1] | IC50 [2]
1 | CN1c2nc(OC[C@@]34CCCN3C[C@H](F)C4)nc3c(F)c(-c4cc(N)cc(Cl)c4C(F)(F)F)nc(c23)OCC12CCC2 [Example 24, 3-chloro-5-(4′-fluoro-2′-(((2R,7aS)-2-fluorotetrahydro-1H-pyrrolizin-7a(5H)-yl)methoxy)-10′-methyl-8′H, 10′H-7′-oxa-1′,3′,6′,10′-tetraazaspiro[cyclobutane-1,9′-cyclohepta[de]naphthalen]-1′(10a′), 2′,3a′, 3 al′(6a′), 5′-pentaen-5′-yl)-4-(trifluoromethyl)aniline] | 2.6 nM | 95 nM
2 | CN1c2nc(OC[C@@]34CCCN3C[C@H](F)C4)nc3c(F)c(-c4cc(N)cc(Cl)c4C(F)(F)F)nc(c23)OC2CCCC21 (stereo partly drawn) [Example 45, 3-chloro-5-((7a, 10a-trans)-4-fluoro-2-(((2R,7aS)-2-fluorotetrahydro-1H-pyrrolizin-7a(5H)-yl)methoxy)-11-methyl-7a, 8,9,10,10a, 11-hexahydro-7-oxa-1,3,6,11-tetraazanaphtho[1,8-fg]azulen-5-yl)-4-(trifluoromethyl)aniline] | 2.7 nM | 82 nM
3 | CN1c2nc(OC[C@@]34CCCN3C[C@H](F)C4)nc3c(F)c(-c4cc(N)c(F)c(Cl)c4C(F)(F)F)nc(c23)O[C@H]2COCC[C@@H]21 [Example 66, 3-chloro-2-fluoro-5-((7aR,11aS)-4-fluoro-2-(((2R,7aS)-2-fluorotetrahydro-1H-pyrrolizin-7a(5H)-yl)methoxy)-12-methyl-7a, 8,10,11,11a, 12-hexahydro-7,9-dioxa-1,3,6,12-tetraazapleiaden-5-yl)-4-(trifluoromethyl)aniline] | 0.47 nM | 5.8 nM
4 | CN1CCCOc2nc(-c3cc(N)cc(Cl)c3C(F)(F)F)c(F)c3nc(OC[C@@]45CCCN4C[C@H](F)C5)nc1c23 [Example 9, 3-chloro-5-(4-fluoro-2-(((2R,7aS)-2-fluorotetrahydro-1H-pyrrolizin-7a(5H)-yl)methoxy)-11-methyl-8,9,10,11-tetrahydro-7-oxa-1,3,6,11-tetraazacycloocta[de]naphthalen-5-yl)-4-(trifluoromethyl)aniline] | 5.2 nM | 249 nM
5 | CC1CC(C)N(C)c2nc(OC[C@@]34CCCN3C[C@H](F)C4)nc3c(F)c(-c4cc(N)cc(Cl)c4C(F)(F)F)nc(c23)O1 (stereo partly drawn) [Example 21, 3-chloro-5-(4-fluoro-2-(((2R,7aS)-2-fluorotetrahydro-1H-pyrrolizin-7a(5H)-yl)methoxy)-8,10,11-trimethyl-8,9,10,11-tetrahydro-7-oxa-1,3,6,11-tetraazacycloocta[de]naphthalen-5-yl)-4-(trifluoromethyl)aniline] | 1.7 nM | 26 nM
6 | CC1COc2nc(-c3cc(N)cc(Cl)c3C(F)(F)F)c(F)c3nc(OC[C@@]45CCCN4C[C@H](F)C5)nc(c23)N1C (stereo partly drawn) [Example 22, 3-chloro-5-(4-fluoro-2-(((2R,7aS)-2-fluorotetrahydro-1H-pyrrolizin-7a(5H)-yl)methoxy)-9,10-dimethyl-9,10-dihydro-8H-7-oxa-1,3,6,10-tetraazacyclohepta[de]naphthalen-5-yl)-4-(trifluoromethyl)aniline] | 6.8 nM | 303 nM
7 | CC1COc2nc(-c3cc(N)cc(Cl)c3C(F)(F)F)c(F)c3nc(OC[C@@]45CCCN4C[C@H](F)C5)nc(c23)N(C)C1 (stereo partly drawn) [Example 15, 3-chloro-5-(4-fluoro-2-(((2R,7aS)-2-fluorotetrahydro-1H-pyrrolizin-7a(5H)-yl)methoxy)-9,11-dimethyl-8,9,10,11-tetrahydro-7-oxa-1,3,6,11 tetraazacycloocta[de]naphthalen-5-yl)-4-(trifluoromethyl)aniline] | 8.6 nM | 371 nM
8 | C#Cc1c(F)ccc2cc(O)cc(-c3nc4c5c(nc(OC[C@@]67CCCN6C[C@H](F)C7)nc5c3F)N(C3CCC3)CCCO4)c12 [Example 13, 4-(11-cyclobutyl-4-fluoro-2-(((2R,7aS)-2-fluorotetrahydro-1H-pyrrolizin-7a(5H)-yl)methoxy)-8,9,10,11-tetrahydro-7-oxa-1,3,6,11-tetraazacycloocta[de]naphthalen-5-yl)-5-ethynyl-6-fluoronaphthalen-2-ol] | 1.4 nM | 141 nM
9 | CC1CCN(C)c2nc(OC[C@@]34CCCN3C[C@H](F)C4)nc3c(F)c(-c4cc(N)cc(Cl)c4C(F)(F)F)nc(c23)O1 (stereo partly drawn) [Example 14, 3-chloro-5-(4-fluoro-2-(((2R,7aS)-2-fluorotetrahydro-1H-pyrrolizin-7a(5H)-yl)methoxy)-8,11-dimethyl-8,9,10,11-tetrahydro-7-oxa-1,3,6,11-tetraazacycloocta[de]naphthalen-5-yl)-4-(trifluoromethyl)aniline] | 13 nM | 414 nM
10 | C[C@@H]1CCOc2c(Cl)c(-c3ccc(F)c4sc(N)c(C#N)c34)c(F)c3nc(OC[C@@]45CCCN4C[C@H](F)C5)nc(c23)N1C [Example 19, 2-amino-4-((R)-9-chloro-11-fluoro-2-(((2R,7aS)-2-fluorotetrahydro-1H-pyrrolizin-7a(5H)-yl)methoxy)-4,5-dimethyl-4,5,6,7-tetrahydro-[1,5]oxazocino[4,3,2-de]quinazolin-10-yl)-7-fluorobenzo[b]thiophene-3-carbonitrile] | 0.65 nM | 22 nM
11 | Nc1cc(Cl)c(C(F)(F)F)c(-c2nc3c4c(nc(OC[C@@]56CCCN5C[C@H](F)C6)nc4c2F)N(C2CC2)CCO3)c1 [Example 8, 3-chloro-5-(10-cyclopropyl-4-fluoro-2-(((2R,7aS)-2-fluorotetrahydro-1H-pyrrolizin-7a(5H)-yl)methoxy)-9,10-dihydro-8H-7-oxa-1,3,6,10-tetraazacyclohepta[de]naphthalen-5-yl)-4-(trifluoromethyl)aniline] | 9.9 nM | 716 nM
12 | CN1c2nc(OC[C@@]34CCCN3C[C@H](F)C4)nc3c(F)c(-c4cc(N)cc(Cl)c4C(F)(F)F)nc(c23)OCCC12CCC2 [Example 32, 3-chloro-5-(4′-fluoro-2′-(((2R,7aS)-2-fluorotetrahydro-1H-pyrrolizin-7a(5H)-yl)methoxy)-11′-methyl-8′,9′-dihydro-11′H-7′-oxa-1′,3′,6′,11′-tetraazaspiro[cyclobutane-1,10′-cycloocta[de]naphthalen]-1′(11a′), 2′,3a′, 3 al′(6a′), 5′-pentaen-5′-yl)-4-(trifluoromethyl)aniline] | 3.4 nM | 133 nM
13 | CN1CCOC(C)(COc2nc3c4c(nc(-c5cc(N)cc(Cl)c5C(F)(F)F)c(F)c4n2)O[C@H]2COCC[C@@H]2N3C)C1 (stereo partly drawn) [Example 63, 3-chloro-5-((7aR,11aS)-2-((2,4-dimethylmorpholin-2-yl)methoxy)-4-fluoro-12-methyl-7a, 8,10,11,11a, 12-hexahydro-7,9-dioxa-1,3,6,12-tetraazapleiaden-5-yl)-4-(trifluoromethyl)aniline] | 1.1 nM | 25 nM
14 | CN1c2nc(OC[C@@]34CCCN3C[C@H](F)C4)nc3c(F)c(-c4ccc(F)c5sc(N)c(C#N)c45)c(Cl)c(c23)OCCC12COC2 [Example 28, 2-amino-4-(9′-chloro-11′-fluoro-2′-(((2R,7aS)-2-fluorotetrahydro-1H-pyrrolizin-7a(5H)-yl)methoxy)-4′-methyl-6′,7′-dihydro-4′H-spiro[oxetane-3,5′-[1,5]oxazocino[4,3,2-de]quinazolin]-10′-yl)-7-fluorobenzo[b]thiophene-3-carbonitrile] | 2.5 nM | 206 nM
15 | CC1CCOc2nc(-c3cc(N)cc(Cl)c3C(F)(F)F)c(F)c3nc(OC[C@@]45CCCN4C[C@H](F)C5)nc(c23)N1C (stereo partly drawn) [Example 6, 3-chloro-5-(4-fluoro-2-(((2R,7aS)-2-fluorotetrahydro-1H-pyrrolizin-7a(5H)-yl)methoxy)-10,11-dimethyl-8,9,10,11-tetrahydro-7-oxa-1,3,6,11-tetraazacycloocta[de]naphthalen-5-yl)-4-(trifluoromethyl)aniline] | 1.8 nM | 63 nM
16 | CN1c2nc(OC[C@@]34CCCN3C[C@H](F)C4)nc3c(F)c(-c4ccc(F)c5sc(N)c(C#N)c45)c(Cl)c(c23)OCC12COC2 [Example 18, 2-amino-4-(8′-chloro-10′-fluoro-2′-(((2R,7aS)-2-fluorotetrahydro-1H-pyrrolizin-7a(5H)-yl)methoxy)-4′-methyl-4′H, 6′H-spiro[oxetane-3,5′-[1,4]oxazepino[5,6,7-de]quinazolin]-9′-yl)-7-fluorobenzo[b]thiophene-3-carbonitrile] | 0.84 nM | 55 nM
17 | CN1c2nc(OC[C@@]34CCCN3C[C@H](F)C4)nc3c(F)c(-c4cc(N)cc(Cl)c4C(F)(F)F)nc(c23)OCCC12CC(O)C2 (stereo partly drawn) [Example 33, 5′-(5-amino-3-chloro-2-(trifluoromethyl)phenyl)-4′-fluoro-2′-(((2R,7aS)-2-fluorotetrahydro-1H-pyrrolizin-7a(5H)-yl)methoxy)-11′-methyl-8′,9′-dihydro-11′H-7′-oxa-1′,3′,6′,11′-tetraazaspiro[cyclobutane-1,10′-cycloocta[de]naphthalen]-1′(11a′), 2′0.3a′, 3 al′(6a′), 5′-pentaen-3-ol] | 0.39 nM | 17 nM
